“Also recorded” adds a separate entry of the source. No end group written: not given here.
Key:
[1] = system: Dictyostelium cAMP-dependent Protein Kinase (DdPKA); assay: PKA-dependent aggregation of starved Dictyostelium cultures; type: cell-based, Dictyostelium discoideum; conditions: 10 micromolar peptide
Method: FIG. 6. Cupid can transport small molecule cargo into cells. Starved Dictyostelium cultures were treated with no peptide (A), cupid B peptide (B), PKI peptide (C) and Cupid B-PKI peptide (D) and analysed for aggregation.
Upon starvation Dictyostelium initiates a developmental program leading to the aggregation of free-living amoebae. Genetic research has uncovered the crucial role that cyclic adenosine monophosphate (cAMP) plays in orchestrating as an extracellular chemoattractant in the initial aggregation process through Dictyostelium cAMP-dependent Protein Kinase (DdPKA). DdPKA can be inhibited by PKI, a 20 amino acid peptide sequence derived from an inhibitor of PKA, by PKI binding directly to the catalytic unit of PKA.
By creating a Cupid B-PKI fusion protein we aimed to establish that it prevents starving Dictyostelium cells from aggregating in vivo.

[2] = system: Dictyostelium discoideum amoeba cells; assay: Permeation of FITC-labelled peptides into cultured Dictyostelium cells (fluorescence microscopy); type: cell-based; conditions: FITC-labelled peptide, 10 micromolar, 1 hour
Method: Peptides were labelled with Fluorescein isothiocyanate (FITC) using a FITC labeling kit as per instructions (Pierce, UK). When added to cell cultures the labeled peptides were visualized using a fluorescent microscope by exciting the FITC with a 488 nm spectral line, argon-ion laser (Excitation wavelength of 494 nm and an Emission wavelength of 518 nm).
AX2 wild type Dictyostelium cells were grown on SM agar plates seeded with Aerobacter aerogenes bacteria (also known as Klebsiella aerogenes) as a food source.
Cupid A ([…]) and Cupid B ([…]) were chemically synthesized labelled with FITC at the amino terminal. The peptides were added to cultured eukaryotic cells of Dictyostelium discoideum amoeba for varying amounts of time up to 2 hours. Cells were then washed and prepared for examination under a fluorescent microscope (FIG. 1). The time courses of permeation were compared to the class 3 CPP, the Antennapedia peptide, pANT which was also labelled with FITC in chemical synthesis (FIG. 2).

| Sequence | effect on aggregation of starved Dictyostelium cultures [1] | cell permeation (fluorescence microscopy) [2] | effect on aggregation of starved Dictyostelium cultures ([1]; listed as Cupid-PKI) |
| --- | --- | --- | --- |
| TTYADRASGRTGRRNAND [PKI, reference compound] | neither the Cupid B peptide nor the PKI peptide alone have any effect on aggregation; also recorded: cells aggregated into tight masses | – | – |
| RRVQIWFQNKRAKVKR [Cupid B, cell penetrating peptide from the genome of Dictyostelium discoideum] | neither the Cupid B peptide nor the PKI peptide alone have any effect on aggregation; also recorded: cells aggregated into tight masses | – | – |
| HHHHHHRRVQIWFQNKRAKVKRIDTTYADRASGRTGRRNAIHD (also: FITC label, site not given here) [Cupid B-PKI, Cupid B-PKI fusion protein with 6x Histidine, made recombinantly in E. coli; FITC-labelled for microscopy] | completely attenuating | cell permeable | failed to aggregate |

Source: US20160310607A1, “CELL TRANSPORT” (CUPID PEPTIDE COMPANY LIMITED, priority 2013, published 2016)
